Data published in patent US6890517B2, “Inhalable formulation of a solution containing a tiotropium salt” (Boehringer Ingelheim Pharma KG, priority 2000, dated 2005).

Assay: stability of budesonide dissolved in water/ethanol at low pH
Format: physicochemical
Conditions: pH of 3.5; dissolved in a mixture of water and ethanol
Experimental: In the case of steroids, these are preferably used in suspended form, especially fluticasone. This is particularly true if the solvent used is only water without ethanol. If ethanol is added, the steroid may also be formulated as a solution.

Compound: CCCC1O[C@@H]2C[C@H]3[C@@H]4CCC5=CC(=O)C=C[C@]5(C)[C@H]4[C@@H](O)C[C@]3(C)[C@]2(C(=O)CO)O1 (stereo partly shown) [budesonide]
- stability in solution: sufficiently stable
